Here are results for one compound from US12484574B2, “Agent for promoting undifferentiation and cryoprotective agent using aprotic zwitterion” (JAPAN SCIENCE AND TECHNOLOGY AGENCY, priority 2019, dated 2025).

SMILES strings stand for the structures.

The test system of the test is Human skin fibroblasts / Mouse fibroblasts C57BL/6-GFP. Briefly: Cell state 24 hours after start of culture, slow freezing method (microscope). It counts as cell-based. As to conditions: 5% by weight in H2O, thawed, cultured 24 hours, cell type of FIG. 5 not stated. Here is the method: The cells to be frozen (two types) were centrifugally recovered by trypsin treatment and diluted with Dulbecco's modified Eagle medium (DMEM), and each cell concentration was measured. The types and cell concentrations of the cells are as follows. • Human skin fibroblasts 5.0×10^5 cells/100 μl • Mouse fibroblasts C57BL/6-GFP 5.0×10^5 cells/100 μl
Subsequently, the cells of each type were dispensed at 1 ml/tube to 1.5 ml tubes, centrifuged, suspended in 100 μl each of the cryopreservation solutions described above, and frozen at a cooling temperature of −80° C. at a cooling rate of −1° C./min using a cell freezing container Mr. Frosty®.
1 ml of a medium was added to the cryopreservation vial for thawing, and a supernatant was removed by centrifugation. Subsequently, the cells obtained by centrifugation were resuspended in a medium, followed by the measurement of a viable cell count. Then, culture was started in a 6-well plate.
24 hours after the start of culture, the sample was fixed in 4% paraformaldehyde (PFA) and observed under a microscope.

In the case of `COCCOCCn1cc[n+](CCCC(=O)[O-])c1` [OE2imC3C], the “cell state 24 hours after the start of culture” value was “confirmed to adhere to the dish bottom”.
